In ChEMBL document CHEMBL1130043, “Chemometric methodologies in a quantitative structure-activity relationship study: the antibacterial activity of 6-aminoquinolones” (1997):

Experiments:
Format in all cases: functional
[1] = system: Enterobacter cloacae; assay: Antibacterial activity against Enterobacter cloacae OMNFI 174 (Gram negative) strain.
[2] = system: Staphylococcus epidermidis; assay: The compound was tested in vitro for antibacterial activity against Staphylococcus epidermidis CPHL A2 (Gram positive) strain
[3] = system: Staphylococcus aureus; assay: Antibacterial activity against Staphylococcus aureus ATCC 6538 (Gram positive) strain.
[4] = system: Klebsiella pneumoniae; assay: Antibacterial activity against Klebsiella pneumoniae ATCC 10031 (Gram negative) strain.
[5] = system: Pseudomonas aeruginosa; assay: Antibacterial activity against Pseudomonas aeruginosa ATCC 9027(Gram negative) strain.
[6] = system: Enterococcus faecalis; assay: Antibacterial activity against Streptococcus faecalis LEP Br (Gram positive) strain.
[7] = system: Escherichia coli; assay: Antibacterial activity against Escherichia coli ISF 432(Gram negative) strain.
[8] = system: Staphylococcus epidermidis; assay: Antibacterial activity against Staphylococcus epidermidis HCF Berset C (Gram positive) strain.
[9] = system: Shigella; assay: Antibacterial activity against Shigella enteritidis (Gram negative) strain.
[10] = system: Staphylococcus aureus; assay: Antibacterial activity against Staphylococcus aureus MPR 5 (Gram positive) strain.
[11] = system: Escherichia coli; assay: Antibacterial activity against Escherichia coli ATCC 8739(Gram negative) strain.
[12] = system: Providencia stuartii; assay: Antibacterial activity against Providencia stuartii CNUR 5(Gram negative) strain.
[13] = system: Acinetobacter calcoaceticus; assay: Antibacterial activity against Acinetobacter calcoaceticus OSMPV 113 (Gram negative) strain.
[14] = system: Staphylococcus epidermidis; assay: Antibacterial activity against Staphylococcus epidermidis CPHL A2 (Gram positive) strain, activity is expressed as log2MIC.
[15] = system: Staphylococcus epidermidis; assay: The compound was tested in vitro for antibacterial activity against Staphylococcus epidermidis CPHL A2 (Gram positive) strain.
[16] = system: Acinetobacter calcoaceticus; assay: The compound was tested for in vitro antibacterial activity against Acinetobacter calcoaceticus OSMPV 113(Gram negative) strain.
[17] = system: Pseudomonas aeruginosa; assay: The compound was tested for in vitro antibacterial activity against Pseudomonas aeruginosa ATCC 9027(Gram negative) strain.
[18] = system: Escherichia coli; assay: The compound was tested for in vitro antibacterial activity against Escherichia coli ISF 432 (Gram negative) strain.
[19] = system: Acinetobacter calcoaceticus; assay: The compound was tested for in vitro antibacterial activity against Acinetobacter calcoaceticus OSMPV 113 (Gram negative) strain.
[20] = system: Escherichia coli; assay: The compound was tested for in vitro antibacterial activity against Escherichia coli ATCC 8739 (Gram negative) strain.
[21] = system: Staphylococcus aureus; assay: The compound was tested for in vitro antibacterial activity against Staphylococcus aureus MPR 5 (Gram positive) strain.
[22] = system: Pseudomonas aeruginosa; assay: The compound was tested for in vitro antibacterial activity against Pseudomonas aeruginosa ATCC 9027 (Gram negative) strain.
[23] = system: Staphylococcus aureus; assay: The compound was tested for in vitro antibacterial activity against Staphylococcus aureus ATCC 6538 (Gram positive) strain.

| Structure (SMILES) | Log2 MIC [1] | Log2 MIC [2] | Log2 MIC [3] | Log2 MIC [4] | Log2 MIC [5] | Log2 MIC [6] | Log2 MIC [7] | Log2 MIC [8] | Log2 MIC [9] | Log2 MIC [10] | Log2 MIC [11] | Log2 MIC [12] | Log2 MIC [13] | Log2 MIC [14] | also measured |
| --- | --- | --- | --- | --- | --- | --- | --- | --- | --- | --- | --- | --- | --- | --- | --- |
| Cc1c(N2CCN(C)CC2)c(N)cc2c(=O)c(C(=O)O)cn(C3CC3)c12 | 10 | 7 | 8 | 12 | 6 | 5 | 12 | 7 | 11 | 8 | 12 | 6 | – | – | – |
| CC(=O)NC1CCN(c2c(N)cc3c(=O)c(C(=O)O)cn(C4CC4)c3c2C)C1 (stereo not given) | 5 | 3 | 3 | 9 | 3 | 1 | 10 | 3 | 5 | 3 | 10 | 2 | 5 | – | – |
| CN1CCN(c2cc3c(c(N)c2N)c(=O)c(C(=O)O)cn3C2CC2)CC1 | 0 | – | 0 | 2 | 0 | 0 | 3 | 0 | 0 | 0 | 3 | 0 | 0 | 0 | – |
| Cc1c(N2CCOCC2)c(N)cc2c(=O)c(C(=O)O)cn(C3CC3)c12 | 10 | 9 | 10 | 12 | 7 | 7 | 12 | 10 | 10 | 10 | 12 | 8 | – | – | – |
| Nc1cc2c(=O)c(C(=O)O)cn(-c3ccc(F)cc3)c2cc1N1CCSCC1 | 5 | – | 8 | 12 | 0 | 0 | 12 | 5 | 5 | 7 | 11 | 5 | 5 | 5 | – |
| CN1CCN(c2cc3c(cc2N)c(=O)c(C(=O)O)cn3-c2ccc(F)cc2)CC1 | 5 | – | 4 | 10 | 4 | 1 | 10 | 4 | 5 | 5 | 10 | 5 | 3 | 4 | – |
| Cc1c(N2CCC(O)CC2)c(N)cc2c(=O)c(C(=O)O)cn(C3CC3)c12 | 8 | 11 | 11 | 12 | 6 | 8 | 12 | 11 | 9 | 10 | 7 | 7 | 10 | – | – |
| CN1CCN(c2cc3c(cc2N)c(=O)c(C(=O)O)cn3C(C)(C)C)CC1 | 7 | – | 6 | 11 | 5 | 2 | 11 | 5 | 7 | 6 | 11 | 5 | 5 | 6 | – |
| Cc1c(N2Cc3ccccc3C2)c(N)cc2c(=O)c(C(=O)O)cn(C3CC3)c12 | 9 | 13 | 13 | 11 | 8 | 9 | 13 | 12 | 9 | 13 | 13 | 11 | – | – | – |
| CN1CCN(c2nc3c(c(N)c2N)c(=O)c(C(=O)O)cn3C2CC2)CC1 | 9 | 6 | 6 | 13 | 4 | 4 | 13 | 6 | 8 | 6 | 9 | 8 | 8 | – | – |
| Cc1c(N2CCSCC2)c(N)cc2c(=O)c(C(=O)O)cn(C3CC3)c12 | 9 | 10 | 11 | 12.5 | 7 | 8 | 12 | 10 | 10 | 11 | 9 | 6 | 10 | – | – |
| Cc1c(N2CCNC(C)C2)c(N)cc2c(=O)c(C(=O)O)cn(C3CC3)c12 (stereo not given) | 10 | 7 | 7 | 12 | 7 | 5 | 12 | 7 | 11 | 7 | 10 | 6 | 6 | – | – |
| CN1CCN(c2c(F)cc3c(=O)c(C(=O)O)cn4c3c2SCC4)CC1 [RUFLOXACIN] | 8 | – | – | 9 | – | 5 | – | 7 | 10 | – | – | 6 | – | 8 | Log2 MIC [18]: 9; Log2 MIC [19]: 7; Log2 MIC [20]: 9; Log2 MIC [21]: 8; Log2 MIC [22]: 5; Log2 MIC [23]: 8 |

Now from value to compound, other results behind:

| Log2 MIC [1] | Log2 MIC [2] | Log2 MIC [3] | Log2 MIC [4] | Log2 MIC [5] | Log2 MIC [6] | Log2 MIC [7] | Log2 MIC [8] | Log2 MIC [9] | Log2 MIC [10] | Log2 MIC [11] | Log2 MIC [12] | Log2 MIC [13] | Log2 MIC [14] | Structure (SMILES) | also measured |
| --- | --- | --- | --- | --- | --- | --- | --- | --- | --- | --- | --- | --- | --- | --- | --- |
| 0 | – | 0 | 6 | 0 | 0 | 7 | 0 | 0 | 0 | 7 | 0 | 0 | 0 | NCCSc1cc2c(cc1N)c(=O)c(C(=O)O)cn2C1CC1 | – |
| 0 | 0 | 0 | 5 | 0 | 0 | 5 | 0 | 0 | 0 | 5 | 0 | 0 | – | CC(=O)NC1CCN(c2cc3c(cc2N)c(=O)c(C(=O)O)cn3C2CC2)C1 (stereo not given) | – |
| 3 | – | 0 | 6 | 0 | 0 | 6 | 1 | 3 | 0 | 6 | 1 | 0 | – | Nc1cc2c(=O)c(C(=O)O)cn(C3CC3)c2cc1Cl | Log2 MIC [15]: 0 |
| 1 | 3 | 5 | 8 | 0 | 1 | 7 | 3 | 1 | 5 | 2 | 1 | 3 | – | Cc1c(N2CCCC2)c(N)cc2c(=O)c(C(=O)O)cn(C3CC3)c12 | – |
| 3 | 0 | 0 | 7 | 3 | 0 | 8 | 0 | 3 | 0 | 7 | 0 | 0 | – | Nc1cc2c(=O)c(C(=O)O)cn(C3CC3)c2cc1N1CCC(N)C1 (stereo not given) | – |
| – | 11 | – | 12 | 11 | 8 | – | – | – | – | – | 11 | 11 | 11 | O=C(O)c1cn(C2CC2)c2cc(N3CCNCC3)c(F)cc2c1=O [CIPROFLOXACIN] | Log2 MIC [16]: 11; Log2 MIC [17]: 11 |
